The text below walks through data of paper PMC6025042, “HSQC-TOCSY Fingerprinting-Directed Discovery of Antiplasmodial Polyketides from the Marine Ascidian-Derived Streptomyces sp. (USC-16018)” (Marine Drugs, 2018).

For one data set, the system named is P. falciparum 3D7. Description: antiplasmodial imaging assay, P. falciparum 3D7. The class given is cell-based, Plasmodium falciparum. The conditions noted are these: for % Inhibition at 40 µM, P. falciparum 3D7 / inhibition at 40 µM: chloroquine sensitive strain; for IC50: read-out: IC50, P. falciparum 3D7. The method, then: (§1) The parasites were subjected to two rounds of sorbitol synchronization before undergoing compound treatment. The ring stage parasites were exposed to the experimental compounds in 384-wells imaging microplates (PerkinElmer CellCarrier, Waltham, MA, USA), as previously described in Reference. The plates were incubated for 72h at 37 °C, 90% N2, 5% CO2, 5% O2, then the parasites were stained with 2-(4-amidinophenyl)-1H–indole-6-carboxamidine (DAPI), and imaged using an Opera QEHS micro-plate confocal imaging system (PerkinElmer, Waltham, MA, USA). The images were analysed as previously described in Reference.
(§2) The raw data were normalized using the in-plate positive and negative controls to obtain the normalized % inhibition data, which was then used to calculate the IC50 values through a 4-parameter logistic curve fitting in the GraphPad Prism (Version 6.0, La Jolla, CA, USA). The experiments were carried out in two independent biological replicates, each consisting of two technical replicates.

The test system of another data set is HEK-293 Cells. Description: cells. The data set is classed as cell-based. The conditions noted are these: for inhibition at 40 µM: read-out: % Inhibition at 40 µM, HEK-293 Cells; for IC50: value in brackets. The method, then:
Human Embryonic Kidney cells (HEK293) were maintained in the Dulbecco’s Modified Eagle Medium (DMEM) medium supplemented with 10% FBS. The HEK293 cells were exposed to the compounds in TC-treated 384-wells plates (Falcon, Durham, NC, USA). […] After an additional 5–6 h incubation at standard conditions, the total fluorescence (excitation/emission: 530 nm/595 nm) was measured using the Envision plate reader (PerkinElmer, Waltham, MA, USA).
as §2

The next data set concerns P. falciparum Dd2. Description: antiplasmodial imaging assay, P. falciparum Dd2. The class given is cell-based, Plasmodium falciparum. To be noted: for % Inhibition at 40 µM, P. falciparum Dd2 / inhibition at 40 µM: chloroquine- and pyrimethamine-resistant strain; for IC50: read-out: IC50, P. falciparum Dd2. The method, then:
as §1, §2

For a further data set, the system named is Plasmodium yoelii. To be noted: cited from earlier work; for doses needed to clear the animals from the parasites: P. yoelii infected mice.
Another data set deals with K1 strain. Also noted: method as in PMID 27554496. The conditions noted are these: read-out: IC50 against the K1 strain; cited from earlier work.
On the set-up of data set [1]: method as in PMID 21454186. The conditions noted are these: cited from earlier work.
The test system of data set [2] is chloroquine-sensitive and chloroquine-resistant Plasmodium falciparum strains. Also noted: method as in PMID 14514358. To be noted: chloroquine-sensitive and chloroquine-resistant strains equally; read-out: IC50, growth of P. falciparum; cited from earlier work.
[3] abbreviates: Plasmodium falciparum, 3D7, 72 h, read-out: % Inhibition at 40 µM, P. falciparum 3D7, 40 µM, 72 h.
Setting [4] is: Plasmodium falciparum, DD2, 72 h, read-out: % Inhibition at 40 µM, P. falciparum Dd2, 40 µM, 72 h.
The mark [5] stands for this setting: Plasmodium falciparum, 3D7, 40 µM, 72 h, read-out: % Inhibition at 40 µM, P. falciparum 3D7.
Setting [6] is: Plasmodium falciparum, DD2, 40 µM, 72 h, read-out: % Inhibition at 40 µM, P. falciparum Dd2.
Where [7] appears, read: Plasmodium falciparum, 3D7, 72 h, value in brackets.
The mark [8] stands for this setting: Homo sapiens, HEK293, 40 µM, 72 h.
Setting [9] is: Plasmodium falciparum, DD2, 72 h, value in brackets.
Setting [10] is: 40 µM, 72 h, listed as Herbimycin G (1).
Setting [11] is: 40 µM, 72 h, listed as Elaiophylin (2).
The mark [12] stands for this setting: 72 h, value in brackets, listed as Elaiophylin (2).

Read-outs that look alike come from different tables or passages of the source.

As to `O=C1N[C@@H](Cc2ccc(O)cc2)C(=O)N2CCC[C@@H]12` [compound 6, Cyclo-L-Pro-L-Tyr], the % Inhibition (as a rule, the change of the read-out against control, counted positive when it falls) at 40 µM, P. falciparum 3D7 with P. falciparum 3D7 (40 µM, 72 h) was “no effect”. Also, the “% Inhibition at 40 µM, HEK-293 Cells” value in the data set with HEK-293 Cells (40 µM, 72 h) is “no effect”. Besides, the “% Inhibition at 40 µM, P. falciparum Dd2” value with P. falciparum Dd2 (40 µM, 72 h) is “no effect”.
With `CCN(CC)CCCC(C)Nc1ccnc2cc(Cl)ccc12` (stereo not shown) [Chloroquine], the inhibition (as a rule, the change of the read-out against control, counted positive when it falls) at 40 µM came out at 98.8% in the data set on P. falciparum 3D7 (setting [3]); 40.9% in the data set on HEK-293 Cells (Homo sapiens, HEK293, 72 h); 96.5% in the data set with P. falciparum Dd2 (setting [4]). Further, the IC50 (in general, the concentration that inhibits the measured activity by half) amounted to 10 nM in the data set with P. falciparum 3D7 (Plasmodium falciparum, 3D7, 72 h) and 87.9 nM in the data set with P. falciparum Dd2 (Plasmodium falciparum, DD2, 72 h). Besides, the “doses needed to clear the animals from the parasites” value in the data set with Plasmodium yoelii was “a single dose of chloroquine was sufficient to fully clear the animals from the parasites”.
With `CC(C)C[C@@H]1NC(=O)[C@@H]2CCCN2C1=O` [compound 3, Cyclo-L-Pro-L-Leu], the inhibition at 40 µM was found to be 45.9% with P. falciparum 3D7 (setting [5]) and 39% in the data set with P. falciparum Dd2 (setting [6]). Further, the “% Inhibition at 40 µM, HEK-293 Cells” value in the data set on HEK-293 Cells (40 µM, 72 h) is “no effect”.
As for `O=C1N[C@@H](Cc2ccccc2)C(=O)N2CCC[C@@H]12` [compound 4, Cyclo-L-Pro-L-Phe], in the data set on P. falciparum 3D7 (40 µM, 72 h), the “% Inhibition at 40 µM, P. falciparum 3D7” value is reported as “no effect”. The “% Inhibition at 40 µM, HEK-293 Cells” value in the data set with HEK-293 Cells (40 µM, 72 h) is reported as “no effect”. Moreover, the “% Inhibition at 40 µM, P. falciparum Dd2” value with P. falciparum Dd2 (40 µM, 72 h) is given as “no effect”.
As for `COc1ccc2nc3cc(Cl)ccc3c(Nc3cc(CN4CCCC4)c(O)c(CN4CCCC4)c3)c2n1` [Pyronaridine], the inhibition at 40 µM in the data set on P. falciparum 3D7 (setting [5]) is 99.9%; with HEK-293 Cells (setting [8]) it was 98.7%; with P. falciparum Dd2 (setting [6]) it was 97.8%. For the same compound, the IC50 was found to be 7.4 nM with P. falciparum 3D7 (setting [7]); 2830 nM in the data set on HEK-293 Cells (Homo sapiens, HEK293, 72 h); 8.3 nM with P. falciparum Dd2 (setting [9]).
With `CC(C)[C@@H]1NC(=O)[C@@H]2CCCN2C1=O` [compound 5, Cyclo-L-Pro-L-Val], in the data set with P. falciparum 3D7 (40 µM, 72 h), the “% Inhibition at 40 µM, P. falciparum 3D7” value is given as “no effect”. Besides, the “% Inhibition at 40 µM, HEK-293 Cells” value in the data set with HEK-293 Cells (40 µM, 72 h) was “no effect”. Besides, in the data set on P. falciparum Dd2 (40 µM, 72 h), the “% Inhibition at 40 µM, P. falciparum Dd2” value is “no effect”.
On to `C[C@H]1[C@H](OC(=O)CCC(=O)O)O[C@@H]2O[C@@]3(C)CC[C@H]4[C@H](C)CC[C@@H]1[C@@]24OO3` [Artesunate], for which the inhibition at 40 µM came out at 99.6% in the data set with P. falciparum 3D7 (setting [5]), 50.6% in the data set with HEK-293 Cells (setting [8]) and 98.4% in the data set on P. falciparum Dd2 (setting [6]). For the same compound, the IC50 in the data set with P. falciparum 3D7 (setting [7]) is 0.9 nM; in the data set with P. falciparum Dd2 (setting [9]), 1.3 nM.
`CO[C@H]1[C@@H](OC)C[C@H](C)[C@@H](OC)C2=C[C@@H](O)C[C@@H](NC(=O)/C(C)=C/C=C\[C@H](OC)[C@@H](OC(N)=O)/C(C)=C/[C@@H]1C)C2=O` [compound 1, herbimycin G]: the “% Inhibition at 40 µM, P. falciparum 3D7” value in the data set with P. falciparum 3D7 (40 µM, 72 h) is reported as above 75%; in the data set with P. falciparum 3D7 (setting [10]) it was 77.2%. Besides, in the data set on P. falciparum 3D7 (3D7 and Dd2 strains), the “antiplasmodial activity (in words)” value is given as “weak antiplasmodial activity”. For the same compound, the inhibition at 40 µM in the data set on P. falciparum 3D7 (setting [3]) is 77%; in the data set with P. falciparum Dd2 (setting [4]), above 75%. Besides, the “% Inhibition at 40 µM, HEK-293 Cells” value in the data set with HEK-293 Cells (40 µM, 72 h) is given as “no effect”. The “cytotoxicity (in words)” value with HEK-293 Cells (HEK293) is “no cytotoxicity”. For the same compound, the “% Inhibition at 40 µM, P. falciparum Dd2” value in the data set with P. falciparum Dd2 (setting [10]) stood at 81.7%.
In the case of `CCc1nc(N)nc(N)c1-c1ccc(Cl)cc1` [Pyrimethamine], the inhibition at 40 µM with P. falciparum 3D7 (setting [5]) is 98.7%; in the data set on HEK-293 Cells (setting [8]), 68.4%; in the data set on P. falciparum Dd2 (setting [6]), 23.2%. For the same compound, the IC50 in the data set with P. falciparum 3D7 (setting [7]) was determined as 4.7 nM.
Turning to `COc1ccc(C[C@H](N)C(=O)N[C@H]2[C@@H](O)[C@H](n3cnc4c(N(C)C)ncnc43)O[C@@H]2CO)cc1` [Puromycin], the inhibition at 40 µM amounted to 99% in the data set on P. falciparum 3D7 (setting [5]), 103% with HEK-293 Cells (setting [8]) and 99.1% with P. falciparum Dd2 (setting [6]). In addition, the IC50 in the data set with P. falciparum 3D7 (setting [7]) stood at 149 nM; in the data set on HEK-293 Cells (Homo sapiens, HEK293, 72 h), 1410 nM; with P. falciparum Dd2 (setting [9]), 114 nM.
With `C=CCNC1=C2C[C@@H](C)C[C@H](OC)[C@H](O)[C@@H](C)/C=C(\C)[C@H](OC(N)=O)[C@@H](OC)/C=C\C=C(/C)C(=O)NC(=CC1=O)C2=O` [17-AAG, 17-N-allylamino-17-demethoxygeldanamycin], the “doses needed to clear the animals from the parasites” value in the data set with Plasmodium yoelii was “a second dose of 17-AAG was needed”. The “efficacy against Plasmodium yoelii in mouse models” value in the data set on Plasmodium yoelii (intra-peritoneal, doses of 7.2 mg/kg) is given as “effective against Plasmodium yoelii in mouse models”. Moreover, the “time to complete clearance of parasitemia after reinfection” value with Plasmodium yoelii (treated mice reinfected with P. yoelii) is recorded as 9 days.
On to elaiophylin [compound 2], for which the IC50 with K1 strain was 214 nM; in the data set on P. falciparum 3D7 (setting [12]), 778 nM; in the data set with HEK-293 Cells (72 h), 1440 nM; in the data set with P. falciparum Dd2 (setting [12]), 598 nM. In addition, the “% Inhibition at 40 µM, P. falciparum 3D7” value is above 75% in the data set on P. falciparum 3D7 (40 µM, 72 h) and 96.6% in the data set on P. falciparum 3D7 (setting [11]). Also, in the data set with HEK-293 Cells (40 µM, 72 h), the “% Inhibition at 40 µM, HEK-293 Cells” value is on record as 101.9%. Moreover, the “cytotoxicity (in words)” value in the data set with HEK-293 Cells (HEK293) is “highly cytotoxic”. Further, the “% Inhibition at 40 µM, P. falciparum Dd2” value is on record as above 75% in the data set with P. falciparum Dd2 (40 µM, 72 h) and 86.1% in the data set on P. falciparum Dd2 (setting [11]).
In the case of `C[C@H]1[C@@H](O)O[C@@H]2O[C@@]3(C)CC[C@H]4[C@H](C)CC[C@@H]1[C@@]24OO3` [Dihydroartemisinin], the inhibition at 40 µM is 99.9% in the data set on P. falciparum 3D7 (setting [5]), 37.9% in the data set with HEK-293 Cells (setting [8]) and 98% in the data set on P. falciparum Dd2 (setting [6]). Further, the IC50 in the data set on P. falciparum 3D7 (setting [7]) is 0.4 nM; in the data set on P. falciparum Dd2 (setting [9]), 0.6 nM.
For `COC1=C2C[C@@H](C)C[C@H](OC)[C@H](O)[C@@H](C)/C=C(\C)[C@H](OC(N)=O)[C@@H](OC)/C=C\C=C(/C)C(=O)NC(=CC1=O)C2=O` [Geld, geldanamycin], in data set [1], the “water solubility (in words)” value is given as “low water solubility”. The IC50 in data set [2] was 20 nM.
